Activity calls are given as the source filed them. The calls are words filed in the database; no cut-off is given here.
Tests used:
[1] = test system: BT-474; experiment: Cytotoxicity against Her2-overexpressing human BT474 cells after 24 hrs by MTT assay; format: functional, cell-based; conditions: BT-474, 24 h
[2] = test system: BT-474; experiment: Induction of apoptosis in Her2-overexpressing human BT474 cells assessed as increase in Bax protein level after 24 hrs by Western blot analysis; format: functional, cell-based
[3] = test system: SK-BR-3; experiment: Induction of apoptosis in Her2-overexpressing human SKBR3 cells assessed as increase in caspase activity after 6 hrs by fluorescence analysis relative to control; format: functional
[4] = test system: SK-BR-3; experiment: Induction of apoptosis in Her2-overexpressing human SKBR3 cells assessed as increase in caspase activity after 6 hrs by fluorescence analysis; format: functional, cell-based
[5] = test system: SK-BR-3; experiment: Induction of apoptosis in Her2-overexpressing human SKBR3 cells assessed as increase in BaK protein level after 24 hrs by Western blot analysis; format: functional, cell-based
[6] = test system: SK-BR-3; experiment: Induction of cell cycle arrest in Her2-overexpressing human SKBR3 cells assessed as increase in DNA accumulation at subG1 phase at 5 uM after 24 hrs by propidium iodide staining-based flow cytometric analysis (reference value: 11%); format: functional
[7] = test system: MDA-MB-231; experiment: Antitumor activity against human MDA-MB-231 cells xenografted in nude mouse assessed as decrease in tumor volume; format: functional; set-up: scale not given: the % may be the effect or the level left
[8] = test system: SK-BR-3; experiment: Induction of apoptosis in Her2-overexpressing human SKBR3 cells assessed as decrease in Bcl-2 protein level after 24 hrs by Western blot analysis; format: functional, cell-based
[9] = test system: SK-BR-3; experiment: Induction of cell cycle arrest in Her2-overexpressing human SKBR3 cells assessed as increase in DNA accumulation at subG1 phase at 10 uM after 24 hrs by propidium iodide staining-based flow cytometric analysis (reference value: 11%); format: functional
[10] = test system: SK-BR-3; experiment: Anticlonogenic activity in Her2-overexpressing human SKBR3 cells assessed as inhibition of colony formation at 1 uM after 6 hrs followed by washout measured after 16 days by crystal violet staining; format: functional
[11] = test system: SK-BR-3; experiment: Cytotoxicity against Her2-overexpressing human SKBR3 cells after 24 to 72 hrs by MTT assay; format: functional, cell-based
[12] = test system: BT-474; experiment: Induction of apoptosis in Her2-overexpressing human BT474 cells assessed as increase in BaK protein level after 24 hrs by Western blot analysis; format: functional, cell-based
[13] = test system: SK-BR-3; experiment: Cytotoxicity against Her2-overexpressing human SKBR3 cells after 72 hrs by MTT assay; format: functional, cell-based; conditions: SK-BR-3, 72 h
[14] = test system: BT-474; experiment: Cytotoxicity against Her2-overexpressing human BT474 cells after 72 hrs by MTT assay; format: functional, cell-based; conditions: BT-474, 72 h
[15] = test system: BT-474; experiment: Anticlonogenic activity in Her2-overexpressing human BT474 cells assessed as inhibition of colony formation after 6 hrs followed by washout measured after 16 days by crystal violet staining; format: functional, cell-based
[16] = test system: BT-474; experiment: Ratio of IC50 for Her2-overexpressing human BT474 cells after 24 hrs to IC50 for Her2-overexpressing human BT474 cells after 72 hrs; format: functional
[17] = test system: BT-474; experiment: Induction of apoptosis in Her2-overexpressing human BT474 cells assessed as increase in caspase activity after 6 hrs by fluorescence analysis; format: functional, cell-based
[18] = test system: SK-BR-3; experiment: Induction of cell cycle arrest in Her2-overexpressing human SKBR3 cells assessed as increase in DNA accumulation at subG1 phase at 2.5 uM after 24 hrs by propidium iodide staining-based flow cytometric analysis (reference value: 11%); format: functional
[19] = test system: SK-BR-3; experiment: Cytotoxicity against Her2-overexpressing human SKBR3 cells after 24 hrs by MTT assay; format: functional, cell-based; conditions: SK-BR-3, 24 h
[20] = test system: SK-BR-3; experiment: Induction of apoptosis in Her2-overexpressing human SKBR3 cells assessed as increase in Bax protein level after 24 hrs by Western blot analysis; format: functional, cell-based
[21] = test system: SK-BR-3; experiment: Anticlonogenic activity in Her2-overexpressing human SKBR3 cells assessed as inhibition of colony formation after 6 hrs followed by washout measured after 16 days by crystal violet staining; format: functional, cell-based
[22] = test system: BT-474; experiment: Cytotoxicity against Her2-overexpressing human BT474 cells after 24 to 72 hrs by MTT assay; format: functional, cell-based
[23] = test system: BT-474; experiment: Induction of apoptosis in Her2-overexpressing human BT474 cells assessed as accumulation at subG1 phase by propidium iodide staining-based flow cytometric analysis; format: functional, cell-based
[24] = test system: BT-474; experiment: Induction of apoptosis in Her2-overexpressing human BT474 cells assessed as increase in caspase activity at 10 uM after 6 hrs by fluorescence analysis relative to control; format: functional
[25] = test system: BT-474; experiment: Anticlonogenic activity in Her2-overexpressing human BT474 cells assessed as inhibition of colony formation at 1 uM after 6 hrs followed by washout measured after 16 days by crystal violet staining; format: functional
[26] = test system: SK-BR-3; experiment: Induction of cell cycle arrest in Her2-overexpressing human SKBR3 cells assessed as increase in DNA accumulation at subG1 phase after 24 hrs by propidium iodide staining-based flow cytometric analysis; format: functional
[27] = test system: BT-474; experiment: Induction of apoptosis in Her2-overexpressing human BT474 cells assessed as decrease in Bcl-2 protein level after 24 hrs by Western blot analysis; format: functional, cell-based

CC1=CC(=O)c2c(O)cccc2C1=O [PLUMBAGIN]
IC50 [1]: 1800 nM | Activity [2]: Dose-dependent effect | fold change (FC) [3]: 4 | Activity [4]: Dose-dependent effect | Activity [5]: Dose-dependent effect | Activity [6]: 43% | Activity [7]: 70% | Activity [8]: Active | Activity [9]: 73% | inhibition at 1 µM [10]: 50% | Activity [11]: Dose-dependent effect | Activity [12]: Dose-dependent effect | IC50 [13]: 1800 nM | IC50 [14]: 800 nM | Activity [15]: Dose-dependent effect | Ratio IC50 [16]: 2 | Activity [17]: Dose-dependent effect | Activity [18]: 20% | IC50 [19]: 3200 nM | Activity [20]: Dose-dependent effect | Activity [21]: Dose-dependent effect | Activity [22]: Dose-dependent effect | Activity [23]: inactive | fold change (FC) [24]: 5 | inhibition at 1 µM [25]: 40% | Activity [26]: Dose-dependent effect | Activity [27]: Active
